Data reported in patent US20020133832A1, “Model systems for neuordegenerative and cardiovascular disorders” (priority 2000, published 2002).
Entries after “also recorded” stand apart in the source; their conditions may differ.

Legend:
Assay type in all cases: in vivo, mouse
S1+/− and T1+/− mice = test: Rescue of reduced rearing behavior (rearings/min) in the open field; conditions: terazosin target dose 0.05 mg/kg body weight/day via drinking water, four weeks, L-DOPA as Sinemet
Source text: FIG. 6. An Active Open Field Activity System (Harvard Apparatus, Holliston, Mass.) was used to monitor total activity, distance traveled/min and number of rearings/min in age matched NT (▴), W2+/−(▪), S1+/−(●) and T1+/−(▾) and T2+/−(♦) mice. The open field for these experiments was a 16 inch by 16 inch enclosure with infrared beams of light aimed to form grids near the floor and 3 inches above the floor of the enclosure. (A) Total activity, or the total number of beam breaks each minute, was determined in two month old mice for a total time of 15 min. (B) A computer algorithm was used to calculate the distance traveled/min during horizontal ambulation by mice of varying age. (C) The number of rearings/minute was determined by electronically tallying the number of times mice of varying age reared onto their hindlimbs, facilitating a greater than 1 sec beam break in the upper grid (3 inches above the floor of the enclosure). (D) Snapshot of an 11 month old S1+/− mouse showing elongation of the torso caused by sprawling and dragging of the hindlimbs. (E) The ability of terazosin and L-DOPA to rescue the reduced number of rearings/min seen in eighteen month old S1+/− and T1+/− mice was tested by administering a target dose of 0.05 mg terazosin/kg body weight/day via the drinking water. After a four week pretreatment with the drug, the number of rearings/min was determined. All error bars in the Figurere present SEM (n>3) and significance in D was determined using analysis of variance with a two-tailed Student's t test (p<0.05).
Receptor overactivity was inhibited in S1+/− and T1+/− mice via treatment with the α1BAR-specific antagonist terazosin. Animals were treated with the drug at a target dose of 0.05 mg/Kg of body weight/day via the drinking water. […] (FIG. 6E).

T2+/− mice [1] = test: Percent seizure activity induced by open field stress; conditions: T2 mice at 12 months of age, 0.05 mg/Kg body weight/day via drinking water, four weeks
Procedure: (§1) FIG. 7. (A) Sequence of seizure behaviors in a 12 month old T2+/− mouse. 1; behavioral arrest. 2; loss of balance and whole body jerking. 3; forelimb flexion. 4; recovery. (B) Comparison of percent seizure activity induced by open field stress in various lines of mice at 12 months of age. […] Percent seizure activity was then calculated by dividing the number of seizure-positive mice by the total number of mice tested. The total number of mice tested for each case is shown above the respective column in the graph. The ability of terazosin to rescue T2+/− mice from the seizure phenotype was tested by administering a target dose of 0.05 mg/kg body weight/day via the drinking water. After a four week pretreatment with the drug, percent seizure activity was determined. (C) Identical experiment to that described in B, except percent seizure activity was determined in lines of mice at seven months of age that were exposed to intraperitoneal injection (IPI) stress. IPI stress was administered to the mice by intraperitoneal injection of […] of sterile 0.9% NaCl.
The seizure event seen in W2+/−, S 1+/−, T1+/− and T2+/− mice at twelve months of age was evoked by exposure to the open field (i.e. handling-invoked stress) and was characterized by behavioral arrest, facial twitching, loss of balance, forelimb automatism, whole body jerking and hypersalivation. […]

T2+/− mice [2] = test: Percent seizure activity induced by intraperitoneal injection (IPI) stress; conditions: T2 mice at 7 months of age, 0.05 mg/Kg body weight/day via drinking water, 4 weeks, 0.05 mg/kg/day
Procedure: as §1
Seizures seen in response to this intraperitoneal injection stress (IPI stress) resembled the open field stress-induced event in terms of severity, characteristics and duration. […]

Question: Which results are given for `N[C@@H](Cc1ccc(O)c(O)c1)C(=O)O` [L-DOPA]?
Answer: rearing behavior (number of rearings/min) (S1+/− and T1+/− mice; eighteen month old S1+/− mice): did not improve the locomotor activity; rearing behavior (number of rearings/min) (S1+/− and T1+/− mice; eighteen month old T1+/− mice): dramatically reversed the rearing deficit

Question: What does the source list for `COc1cc2nc(N3CCN(C(=O)C4CCCO4)CC3)nc(N)c2cc1OC` (stereo not drawn) [terazosin]?
Answer: percent seizure activity (T2+/− mice [1]): partially reversible i.e., fewer events; percent seizure activity (T2+/− mice [2]): reduced the number of younger T2+/− mice displaying IPI-induced seizures; also recorded: partially reversed the phenotype; rearing behavior (number of rearings/min) (S1+/− and T1+/− mice; eighteen month old S1+/− mice): partial rescue of the rearing behavior; rearing behavior (number of rearings/min) (S1+/− and T1+/− mice; eighteen month old T1+/− mice): partial rescue of the rearing behavior
